Data reported in article PMC9959130, “Effects of Side Chain and Peptide Bond Modifications on the Targeting Properties of Stabilized Minigastrin Analogs” (Pharmaceuticals, 2023).
Where a SMILES comes first, the peptide text is derived from it. [ ]: non-standard residue; d: D form. The star is where a group is joined. DOTA = O=C(O)CN1CCN(CC(=O)O)CCN(CC(=O)*)CCN(CC(=O)O)CC1; 1Nal = N[C@@H](Cc1cccc2ccccc12)C(=O)O; NMeNle = CCCC[C@H](NC)C(=O)O

Tests used:
human CCK2R [1] = target: T1, human CCK2R (Homo sapiens, UniProt P32239); experiment: Competitive binding assay against [125I][3-iodo-Tyr12,Leu15]gastrin-I on A431-CCK2R cells; settings: unlabeled peptide, 1 h at RT, radioligand [125I][3-iodo-Tyr12,Leu15]gastrin-I, mean ± sd of three independent experiments in triplicates
T1 construct: expressed in transfected cells; host or cells: A431 human epidermoid carcinoma cells, stably transfected (A431-CCK2R); originally provided by Dr. Luigi Aloj
T1 sequence (P32239 1-447): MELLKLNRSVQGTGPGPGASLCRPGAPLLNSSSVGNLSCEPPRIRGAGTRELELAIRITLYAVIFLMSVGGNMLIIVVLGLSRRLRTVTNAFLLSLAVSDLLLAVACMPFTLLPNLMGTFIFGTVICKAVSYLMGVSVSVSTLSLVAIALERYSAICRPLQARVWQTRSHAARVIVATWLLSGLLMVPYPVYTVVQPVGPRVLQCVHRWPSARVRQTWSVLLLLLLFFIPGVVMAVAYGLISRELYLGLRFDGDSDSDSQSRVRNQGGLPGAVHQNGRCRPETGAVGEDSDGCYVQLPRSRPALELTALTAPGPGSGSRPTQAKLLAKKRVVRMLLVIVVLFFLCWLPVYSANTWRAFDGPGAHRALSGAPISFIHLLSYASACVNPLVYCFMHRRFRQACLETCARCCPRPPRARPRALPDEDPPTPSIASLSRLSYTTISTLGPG
Excerpt: (§1) A431 human epidermoid carcinoma cells overexpressing human CCK2R through stable transfection (A431-CCK2R) and the same cell line transfected with the empty vector (A431-mock) were used for cell assays. The cells are constantly available in our laboratory and were originally provided by Dr. Luigi Aloj. All cell culture media and reagents were obtained from Invitrogen Corporation (Lofer, Austria) or Sigma-Aldrich (Darmstadt, Germany). Dulbecco’s modified Eagle’s medium (DMEM) supplemented with 10% (v/v) fetal bovine serum and 1% of 100x penicillin−streptomycin−glutamine was used for cell culture. The cells were passaged three times per week using a 10x 2.5% trypsin-EDTA solution in a 1:2–1:3 ratio.
Receptor affinity studies of the DOTA-conjugates for the CCK2R was competitively evaluated against [^125I][3-iodo-Tyr^12,Leu^15]gastrin-I. The binding assays were performed in 96-well filter plates (MultiScreenHTS-FB, Merck Group, Darmstadt, Germany) as previously described. A431-CCK2R cells (200,000–400,000/well) were incubated for 1 h at RT with the peptides (concentration range of 0.01–1000 nM) and [^125I][3-iodo-Tyr^12,Leu^15]gastrin-I (~25,000 cpm). The incubation was arrested by filtering the medium by vacuum and rinsing twice rapidly with ice-cold binding assay buffer (10 mM TRIS/139 mM NaCl, pH 7.3). The filters were removed from the plate, transferred into 4.5 mL tubes and measured in the γ-counter. Data were normalized from 0 to 100 for graphical representation of exemplary binding curves. Origin software (Microcal Origin 6.1, Northampton, MA, USA) was used to calculate the half maximal inhibitory concentration (IC50) values by nonlinear regression and expressed as mean ± sd for three independent experiments performed in triplicates. An additional cell uptake study at 2 h after incubation was performed for DOTA-[(N-Me)1Nal^8]MGS5 radiolabeled with gallium-68 and lutetium-177 (see Figure S4 of the Supplementary Materials).

human CCK2R [2] = target: T1, human CCK2R; experiment: Calcium mobilization assay (fluo-4 AM) on A431-CCK2R cells; assay type: cell-based; settings: normalized to 10^−6 M pentagastrin, mean ± SEM of at least three independent experiments in triplicates
Excerpt: as §1
Analog-induced receptor activation was evaluated by a calcium mobilization assay using the calcium-sensitive dye fluo-4 AM (ThermoFisher Scientific, Montigny-Le-Bretonneux, France), as previously described. Briefly, A431-CCK2R cells were seeded (60,000/well) in flat clear bottom black 96-well plates (Corning, Bagneaux-sur-Loing, France) coated with poly-L-ornithine (100 µg/mL, 1 h, 37 °C) (Sigma Aldrich, Saint Quentin Fallavier, France). Cytosolic Ca^2+ variations were measured before and after application of 50 µL of graded concentrations of the investigated peptides in the vicinity of the cells, and the effects on Ca^2+ mobilization were measured. Data were background corrected and normalized for the amplitudes caused by the medium alone (0%, no self-effect) or 10^−6 M pentagastrin (100%, maximal Ca^2+ mobilization response). Prism 4.0 software was used to calculate the EC50 values and the results were expressed as mean ± SEM for at least three independent experiments performed in triplicates.

[3] = Metabolic studies in BALB/c mice (intact radiopeptide by radio-HPLC); assay type: in vivo; settings: i.v., 2 nmol, 10 min p.i., two animals per peptide
Procedure: All animal experiments were approved by the Austrian Ministry of Science (BMWF-66.011/0075- WF/V/3b/2016) and performed in accordance with the Austrian Animal Protection Act. Metabolic studies characterizing the stability of selected radioligands against enzymatic degradation were carried out in 7 to 8 week old female BALB/c mice (Charles River, Sulzfeld, Germany). The mice (two animals for each peptide) were intravenously injected into a lateral tail vein with 5–10 MBq of the ^111In-labeled peptide derivatives, corresponding to 2 nmol total peptide. At the time point of 10 min p.i. the animals were euthanatized by cervical dislocation. A sample of urine and blood was immediately collected. Liver and kidneys were dissected, mixed with 20 mM HEPES buffer pH 7.3 (1:1, w/v) and homogenized using an Ultra-Turrax T8 homogenizer (IKA-Werke, Staufen, Germany) for 1 min. All samples taken were analyzed by analytical HPLC using the low-sensitivity loop for urine and the high-sensitivity loop for blood, liver and kidney. Before injection into the HPLC system, all samples except urine were treated with ACN and diluted with water as described for stability studies in human serum. The percentage of intact radiopeptide in the analyzed samples was calculated by integration of the different peaks found in the radiochromatogram using Chromeleon Dionex Software (Version 7.2.9.11323).

Complex stability in PBS = assay type: physicochemical; settings: 1000 pmol/mL in PBS, room temperature, 4 h after incubation, n = 1
Procedure: In vitro stability studies were performed in human serum (n = 2). The radiolabeled peptides (1000 pmol/mL) were incubated at 37 °C and a sample of 100 μL was taken at 1, 4, and 24 h after incubation. After the precipitation of proteins with ACN at 1:1.5 (v/v), centrifugation (14,000 rpm, 2 min, centrifuge 5424, Eppendorf AG, Germany) and dilution with water at 1:1 (v/v), an aliquot of 100 μL of this solution was analyzed by HPLC. Radioligand breakdown was monitored and the percentage of intact radiopeptide was calculated using Chromeleon Dionex Software (Version 7.2.9.11323). Additionally, the radiolabeled peptides (1000 pmol/mL) were incubated in PBS (n = 1) at room temperature to confirm the complex stability as a control.

| Structure (SMILES) | IC50 (human CCK2R [1]) | EC50 (human CCK2R [2]) | further results |
| --- | --- | --- | --- |
| CCCC[C@@H](C(=O)N[C@@H](CC(=O)O)C(=O)N[C@@H](Cc1cccc2ccccc12)C(=O)NC)N(C)C(=O)[C@H](Cc1c[nH]c2ccccc12)NC(=O)CNC(=O)[C@H](Cc1ccc(O)cc1)NC(=O)[C@H](C)NC(=O)[C@@H](CCC(=O)O)NC(=O)CN1CCN(CC(=O)O)CCN(CC(=O)O)CCN(CC(=O)O)CC1 [DOTA-MGS5[NHCH3]] | 13.2 ± 1.5 nM | 41 ± 14.7 nM |  |
| CCCC[C@@H](C(=O)N[C@@H](CC(=O)O)C(=O)N[C@@H](Cc1ccc2ccccc2c1)C(N)=O)N(C)C(=O)[C@H](Cc1c[nH]c2ccccc12)NC(=O)CNC(=O)[C@H](Cc1ccc(O)cc1)NC(=O)[C@H](C)NC(=O)[C@@H](CCC(=O)O)NC(=O)CN1CCN(CC(=O)O)CCN(CC(=O)O)CCN(CC(=O)O)CC1 [DOTA-[2Nal^8]MGS5] | 1.7 ± 0.1 nM | 12.8 ± 2.4 nM |  |
| CCCC[C@@H](C(=O)N[C@@H](CC(=O)O)C(=O)N(C)[C@@H](Cc1cccc2ccccc12)C(N)=O)N(C)C(=O)[C@H](Cc1c[nH]c2ccccc12)NC(=O)CNC(=O)[C@H](Cc1ccc(O)cc1)NC(=O)[C@H](C)NC(=O)[C@@H](CCC(=O)O)NC(=O)CN1CCN(CC(=O)O)CCN(CC(=O)O)CCN(CC(=O)O)CC1 [DOTA-[(N-Me)1Nal^8]MGS5] | 2.7 ± 0.3 nM | 63.4 ± 19.9 nM |  |
| CCCC[C@@H](C(=O)N[C@@H](CC(=O)O)C(=O)N[C@@H](Cc1cccc2ccccc12)C(N)=O)N(C)C(=O)[C@H](Cc1c[nH]c2ccccc12)NC(=O)CNC(=O)[C@H](Cc1ccc(O)cc1)NC(=O)[C@H](C)NC(=O)[C@@H](CCCCN)NC(=O)CN1CCN(CC(=O)O)CCN(CC(=O)O)CCN(CC(=O)O)CC1 [DOTA-[DLys^1]MGS5] ({DOTA}-[dK]AYGW[NMeNle]D[1Nal]-NH2) | 0.9 ± 0.8 nM | 43.5 ± 14.1 nM |  |
| CCCC[C@@H](C(=O)N[C@@H](CC(=O)O)C(=O)N[C@@H](Cc1ccccc1)C(N)=O)N(C)C(=O)[C@H](Cc1c[nH]c2ccccc12)NC(=O)CNC(=O)[C@H](Cc1ccc(O)cc1)NC(=O)[C@H](C)NC(=O)[C@@H](CCC(=O)O)NC(=O)CN1CCN(CC(=O)O)CCN(CC(=O)O)CCN(CC(=O)O)CC1 [DOTA-[Phe^8]MGS5] ({DOTA}-[dE]AYGW[NMeNle]DF-NH2) | 0.7 ± 0.1 nM | 6.3 ± 3.6 nM |  |
| CCCC[C@@H](C(=O)N[C@@H](CC(=O)O)C(=O)N(C)[C@@H](Cc1cccc2ccccc12)C(N)=O)N(C)C(=O)[C@H](Cc1c[nH]c2ccccc12)NC(=O)CNC(=O)[C@H](Cc1ccc(O)cc1)NC(=O)[C@H](C)NC(=O)[C@@H](CCC(=O)O)NC(=O)CN1CCN(CC(=O)O)CCN(CC(=O)O)CCN(CC(=O)O)CC1 [[^111In]In-DOTA-[(N-Me)1Nal^8]MGS5] [metal not drawn] |  |  | Intact radiopeptide in kidney ([3]; kidney homogenate): 40.2 ± 4.1%; Intact radiopeptide in liver ([3]; liver homogenate): 94.9 ± 2.8%; Intact radiopeptide in blood [3]: 98.4 ± 0.1%; Intact radiopeptide in urine [3]: 15.9 ± 3.4%; Stability of the DOTA-complex in PBS (Complex stability in PBS): 96.2% |
| CCCC[C@@H](C(=O)N[C@@H](CC(=O)O)C(=O)N(C)[C@@H](Cc1cccc2ccccc12)C(N)=O)N(C)C(=O)[C@H](Cc1c[nH]c2ccccc12)NC(=O)CNC(=O)[C@H](Cc1ccc(O)cc1)NC(=O)[C@H](C)NC(=O)[C@@H](CCC(=O)O)NC(=O)CN1CCN(CC(=O)O)CCN(CC(=O)O)CCN(CC(=O)O)CC1 [[^177Lu]Lu-DOTA-[(N-Me)1Nal^8]MGS5] [metal not drawn] |  |  | Stability of the DOTA-complex in PBS (Complex stability in PBS): 99% |
